In US9771345B2, “Coferons and methods of making and using them” (Cornell University, priority 2009, dated 2017) one finds IC50 data, which are given here for 7 compounds.

The term IC50 denotes the concentration that inhibits the measured activity by half.

SMILES strings stand for the structures. Structures can show the parent of a compound that is named as a salt.

T1 sequence (P20231 31-275): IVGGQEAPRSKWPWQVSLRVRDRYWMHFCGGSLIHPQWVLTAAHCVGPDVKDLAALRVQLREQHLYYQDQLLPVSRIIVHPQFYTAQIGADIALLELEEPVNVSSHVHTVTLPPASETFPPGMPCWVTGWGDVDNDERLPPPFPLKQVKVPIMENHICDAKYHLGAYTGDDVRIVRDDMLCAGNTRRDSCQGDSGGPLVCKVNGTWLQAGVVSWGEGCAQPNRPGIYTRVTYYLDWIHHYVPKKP

This assay has as its target T1, recombinant human tryptase, beta, from lung (Homo sapiens, UniProt P20231).
T1 construct: purchased Promega or Enzo Life Sciences G5631 or BML-SE418
Put plainly: Inhibition of tryptase activity by coferons (Boc-Gln-Ala-Arg-AMC fluorescence). In kind it is biochemical. The settings on record: coferon monomer alone; 1 nM tryptase. On the procedure:
Stock solutions of recombinant human tryptase, beta, from lung (Promega: catalog number G5631, or Enzo Life Sciences: catalog number BML-SE418) were made at 30 μM, in solution with 50 μM heparin sulfate and 500 mM NaCl. Coferon tryptase inhibitor stock solutions were made at 50 mM in DMSO. Drug plates were made at 5× the final concentration in assay buffer (50 mM HEPES, 150 mM NaCl, 100 μM EDTA, pH 7.4, 0.02% Tween-20). A final concentration of 1 nM tryptase was used. When required, drugs were diluted in assay buffer immediately before use in 10-fold serial dilutions. […] The Softmax Pro (Molecular Devices) and Graphpad prism software were used to determine Vmax, and concentration-response curve IC50s, respectively.
On to `NCc1cccc(C2CCN(C(=O)/C=C/c3ccc(O)c(O)c3)CC2)c1` [Example 39, (E)-1-(4-(3-(aminomethyl)phenyl)piperidin-1-yl)-3-(3,4-dihydroxyphenyl)prop-2-en-1-one hydrochloride], for which the IC50 was 4.3 µM.
Consider `NCc1cccc(C2CCN(C(=O)c3cccc4cc(O)c(O)cc34)CC2)c1` [Example 40, (4-(3-(aminomethyl)phenyl)piperidin-1-yl)(6,7-dihydroxynaphthalen-1-yl)methanone], for which the IC50 is 1.2 µM.
As to `NCc1cccc(C2CCN(C(=O)c3cccc4ccc(B(O)O)cc34)CC2)c1` [Example 35, (8-(4-(3-(aminomethyl)phenyl)piperidine-1-carbonyl)naphthalen-2-yl)boronic acid], the IC50 came out at 15 µM.
Regarding `NCc1cccc(C2CCN(C(=O)Cc3cccc(B(O)O)c3)CC2)c1` [Example 36, (3-(2-(4-(3-(aminomethyl)phenyl)piperidin-1-yl)-2-oxoethyl)phenyl)boronic acid], the IC50 is 8.15 µM.
Consider `NCc1cccc(C2CCN(C(=O)c3cccc(OCC(=O)N4C[C@@H](O)[C@@H](O)C4)c3)CC2)c1` [Example 50, 2-(3-(4-(3-(aminomethyl)phenyl)piperidine-1-carbonyl)phenoxy)-1-((3S,4R)-3,4-dihydroxypyrrolidin-1-yl)ethanone], for which the IC50 was 7.5 µM.
Next, `NCc1cccc(C2CCN(C(=O)c3cccc4cc(B(O)O)ccc34)CC2)c1` [Example 34, (5-(4-(3-(amino methyl)phenyl)piperidine-1-carbonyl)napthalen-2-yl)boronic acid]: 0.48 µM.
In the case of `NCc1cccc(C2CCN(C(=O)Cc3ccc(B(O)O)cc3)CC2)c1` [Example 37, (4-(2-(4-(3-(aminomethyl)phenyl)piperidin-1-yl)-2-oxoethyl)phenyl)boronic acid], the IC50 stood at 1.05 µM.
